The source of these data is ChEMBL document CHEMBL1201862, “PubChem BioAssay data set” (2004).

Holding throughout (test): DTP human tumour cell line panel, 48 h
The subject of assay [1] is CCRF-CEM.
Assay [2] has as its system DU-145.
In assay [3] the test system is EKVX.
For assay [4], the system named is HOP-92.
In assay [5] the test system is LOX IMVI.
In assay [6] the test system is M14.
Assay [7] has as its system MDA-MB-231.
Assay [8] has as its system Malme-3M.
The subject of assay [9] is SF-295.
The subject of assay [10] is SK-OV-3.
For assay [11], the system named is SR.
For assay [12], the system named is UACC-257.
Assay [13] concerns HCT-116.
Assay [14] relates to NCI-H522.
For assay [15], the system named is OVCAR-3.
In assay [16] the test system is SNB-19.
The subject of assay [17] is NCI/ADR-RES.
In assay [18] the test system is SK-MEL-2.

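Where inhibition never reached the appropriate level, the endpoint shown equals the highest concentration tested. Otherwise, values were interpolated linearly from a five-concentration, 48-hour dose response in 96-well plates. The concentration for 50% growth inhibition is given as GI50.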 Activity calls are given as the source filed them. No stated cut-off is given here; in the data, active = GI50 up to about 1.1 µM and inactive = higher.

Turning to `COc1c(F)c(F)c(C(=O)/C=C2\Nc3ccccc3NC2=O)c(F)c1F`, the GI50 – broadly, the concentration at which growth is held to half of that of the control – in assay [1] is > 10 µM (inactive); in assay [2], > 10 µM (inactive); in [3] it was > 10 µM (inactive); in assay [4], > 10 µM (inactive); in assay [5] it was 2.89 µM (inactive); in assay [6] it was > 10 µM (inactive). Also, the GI50 is > 10 µM (inactive) in [7]; > 10 µM (inactive) in [8]; 5.52 µM (inactive) in [9]; 4.57 µM (inactive) in assay [10]; > 10 µM (inactive) in assay [11]; > 10 µM (inactive) in [12].

For the compound `CCOC(=O)CCC(=O)C1c2cccc(O)c2C(=O)c2c(O)cccc21`, the 50% growth inhibitory concentration (GI50) in assay [1] is 1.1 µM (active); in assay [13], 1.31 µM (inactive); in assay [4] it was 1.49 µM (inactive); in assay [5], 0.604 µM (active); in assay [6] it was 0.566 µM (active); in [8] it was 1.78 µM (inactive). Also, the GI50 in [14] is 0.408 µM (active); in assay [15], 0.942 µM (active); in [9] it was 0.644 µM (active); in [16] it was 1.56 µM (inactive); in [11], 2.24 µM (inactive); in [12], 1.69 µM (inactive).

Regarding `CCOC(=O)Nn1cnnc1C`, the GI50 in assay [1], in assay [3], in assay [13], in [4], in assay [5] and in [6] was > 100 µM (inactive) in each case. The GI50 in [7], in assay [8], in [14], in assay [17], in assay [15] and in [9] was > 100 µM (inactive) in each case. Besides, the GI50 in assay [18], in [10], in assay [16], in [11] and in assay [12] was > 100 µM (inactive) in each case.

Take `OC(c1ccc(F)cc1)C(F)(F)c1nc2ccccc2o1` (stereo not drawn): the GI50 in assay [1] is > 100 µM (inactive); in assay [2] it was 47 µM (inactive); in [3], > 100 µM (inactive); in [13], > 100 µM (inactive); in [4] it was 21.7 µM (inactive); in assay [5], > 100 µM (inactive). The GI50 is > 100 µM (inactive) in [6]; 83.8 µM (inactive) in [7]; 51.4 µM (inactive) in [17]; > 100 µM (inactive) in assay [9]; > 100 µM (inactive) in assay [18]; > 100 µM (inactive) in assay [10]. Further, the results for the GI50 in [16], in [11] and in assay [12] were > 100 µM (inactive), > 100 µM (inactive) and 57.4 µM (inactive), respectively.

Take `O=C(/C=C/c1ccc(C(F)(F)F)cc1)c1c([O-])on[n+]1-c1ccccc1`: the 50% growth inhibitory concentration (GI50) in [1] was 0.108 µM (active); in [2] it was 2.21 µM (inactive); in [3], 2.24 µM (inactive); in [13], 1.75 µM (inactive); in [4] it was 1.6 µM (inactive); in assay [5] it was 0.403 µM (active). Moreover, the GI50 in assay [6] is 2.3 µM (inactive); in assay [7], 4.53 µM (inactive); in assay [8] it was > 100 µM (inactive); in assay [17], 1.78 µM (inactive); in [15], 1.58 µM (inactive); in assay [9] it was 3.6 µM (inactive). Further, the GI50 in assay [18] was 2.81 µM (inactive); in assay [10], 14.3 µM (inactive); in [16], 3.12 µM (inactive); in assay [11], 0.196 µM (active); in assay [12], 2.12 µM (inactive).
